# Reference: patent US11286268B1, “EIF4E-inhibiting compounds and methods” (EFFECTOR THERAPEUTICS, INC., priority 2019, dated 2022)
# Read-outs that look alike come from different tables or passages of the source.
# Target: recombinant eIF4E (Homo sapiens (Human), UniProt P06730)
# Assay: Fluorescence polarization competition assay for eIF4E binding potency
# Description: Compounds were screened for eIF4E binding potency using a fluorescence polarization competition assay. All binding reactions were performed in fluorescence polarization buffer (FPB) containing 20 mM Tris pH 7.5, 100 mM NaCl, 1 mM DTT, and 0.02% Tween-20. Final binding reactions contained 75 nM recombinant eIF4E (Beryllium, custom order), 20 nM EDA-m^7GDP-ATTO-550 (Jena Bioscience, NU-827-550) and varying concentrations of the inhibitory compound of interest. Final DMSO concentration in each reaction was 1%.
# eIF4E protein was pre-incubated with EDA-m^7GDP-ATTO-550 in FPB at 2× concentrations for 5 minutes prior to the addition of compounds. Compounds (100×) were prepared using 3-fold serial dilutions in 100% DMSO, and subsequently diluted 1:50 in FPB to produce 2× stocks. 50 μl of 2× eIF4E/EDA-m^7GDP-ATTO-550 were transferred to the wells of a 96-well half-area black flat bottom polystyrene plate. 50 μl of 2× test compound were added, and binding reactions were allowed to equilibrate for 30 minutes at room temperature while protected from light. The fluorescent polarization signal was detected using a Victor 2 multi-label counter (Perkin Elmer) and the concentration necessary to achieve inhibition of eIF4E/EDA-m^7GDP-ATTO-550 binding by 50% (IC50) was calculated using data from an 8-point compound dilution series.
# In Table 4A, IC50 values of less than 0.05 μM are labelled as “+++”, from 1 to 0.05 μM are labelled as “++”, and greater than 1 μM are labelled as “+”. ND=not determined.
# [1] = fluorescence polarization competition, 75 nM recombinant eIF4E, 20 nM EDA-m7GDP-ATTO-550, IC50 class, read-out: elF4E FP
# [2] = inhibition of eIF4E/EDA-m7GDP-ATTO-550 binding by 50%, Table 4B calculated values, read-out: IC50
# Sequence of recombinant eIF4E (P06730 whole entry): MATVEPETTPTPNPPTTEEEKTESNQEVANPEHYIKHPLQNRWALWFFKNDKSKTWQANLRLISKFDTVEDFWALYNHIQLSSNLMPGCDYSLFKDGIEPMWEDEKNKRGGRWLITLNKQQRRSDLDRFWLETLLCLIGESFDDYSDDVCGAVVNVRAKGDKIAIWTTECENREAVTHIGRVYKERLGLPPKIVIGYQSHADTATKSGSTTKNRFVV
SMILES,IC50 [1],IC50 [2]
CC(C)(C#N)c1cc(C(=O)O)cc(-c2cc(Cl)ccc2OCCn2cnc3cnc(C#N)cc3c2=O)c1 [compound 110],> 1 µM,26.9 µM
N#Cc1cc2c(=O)n(CCOc3ccc(Cl)cc3-c3ccc(OC(F)F)c(C(=O)O)c3)cnc2cn1 [compound 111],0.05 to 1 µM,0.434 µM
CS(=O)(=O)c1cc(C(=O)O)cc(-c2cc(Cl)ccc2OCCn2cnc3cnc(C#N)cc3c2=O)c1 [compound 112],> 1 µM,> 3 µM
N#Cc1cc2c(=O)n(CCOc3ccc(Cl)cc3-c3ccc(OC(F)(F)F)c(C(=O)O)c3)cnc2cn1 [compound 113],0.05 to 1 µM,0.804 µM
COc1c(N)cc(-c2cc(Cl)ccc2OCCn2cnc3cnc(C#N)cc3c2=O)cc1C(=O)O [compound 114],0.05 to 1 µM,0.333 µM
Cc1c(C(=O)O)ccnc1-c1cc(Cl)ccc1OCCn1cnc2cnc(C#N)cc2c1=O [compound 115],> 1 µM,> 3 µM
Cc1cc(C(=O)O)c(C#N)c(-c2cc(Cl)ccc2OCCn2cnc3cnc(C#N)cc3c2=O)n1 [compound 116],> 1 µM,> 3 µM
N#Cc1cc2c(=O)n(CCOc3ccc(Cl)cc3-c3cc(C(=O)O)c4cc[nH]c4n3)cnc2cn1 [compound 117],> 1 µM,> 3 µM
N#Cc1cc2c(=O)n(CCOc3ccc(Cl)cc3-c3cccc4c(C(=O)O)nccc34)cnc2cn1 [compound 118],0.05 to 1 µM,0.416 µM
Cc1nc2cc(Cl)c(C(F)F)c(C#N)c2c(=O)n1CCOc1ccc(Cl)cc1-c1ccnc2c(C(=O)O)csc12 [compound 119],< 0.05 µM,0.0199 µM
Cc1nc2cc(C(F)(F)F)cc(C#N)c2c(=O)n1CC#Cc1ccc(Cl)cc1-c1ccnc2c(C(=O)O)csc12 [compound 120],< 0.05 µM,0.0357 µM
Cc1cc(-c2cc(Cl)ccc2OCCn2c(C)nc3cc(C(F)(F)F)cc(C#N)c3c2=O)c2scc(C(=O)O)c2n1 [compound 121],< 0.05 µM,0.0375 µM
Cc1nc2cc(C(F)(F)F)cc(C#N)c2c(=O)n1CCOc1ccc(Cl)cc1-c1ccc(F)c2c(C(=O)O)csc12 [compound 122],< 0.05 µM,0.0244 µM
Cc1sc2c(-c3cc(Cl)ccc3OCCn3c(C)nc4c(F)cc(C(F)F)c(C#N)c4c3=O)ccnc2c1C(=O)O [compound 123],< 0.05 µM,0.0365 µM
COc1ccc(OCCn2cnc3cnc(C#N)cc3c2=O)c(-c2cccc(C(=O)O)c2)c1 [compound 124],> 1 µM,9.13 µM
N#Cc1cc2c(=O)n(CCOc3ccc(O)cc3-c3cccc(C(=O)O)c3)cnc2cn1 [compound 125],> 1 µM,> 3 µM
N#Cc1cc2c(=O)n(CCOc3ccc(C(F)F)cc3-c3cccc(C(=O)O)c3)cnc2cn1 [compound 126],> 1 µM,8.36 µM
C#Cc1c(C(=O)O)cccc1-c1cc(Cl)ccc1OCCn1cnc2cnc(C#N)cc2c1=O [compound 127],0.05 to 1 µM,0.077 µM
N#Cc1cc2c(=O)n(CCOc3ccc(Cl)cc3-c3cccc(-c4nn[nH]n4)c3)cnc2cn1 [compound 128],0.05 to 1 µM,0.97 µM
CC(COc1ccc(Cl)cc1-c1cccc(C(=O)O)c1)n1cnc2cnc(C#N)cc2c1=O (stereo not drawn) [compound 129],> 1 µM,3.1 µM
N#Cc1cc2c(=O)n(CC#Cc3ccc(Cl)cc3-c3cccc(C(=O)O)c3)cnc2cn1 [compound 130],> 1 µM,1.42 µM
CC(=O)Nc1cc2c(=O)n(CCOc3ccc(Cl)cc3-c3cccc(C(=O)O)c3)cnc2cn1 [compound 131],0.05 to 1 µM,0.6 µM

SMILES,IC50 [1],IC50 [2]
CNC(=O)c1cc2c(=O)n(CCOc3ccc(Cl)cc3-c3cccc(C(=O)O)c3)cnc2cn1 [compound 132],0.05 to 1 µM,0.624 µM
N#Cc1c(C(F)(F)F)ccc2ncn(CCOc3ccc(Cl)cc3-c3cccc(C(=O)O)c3)c(=O)c12 [compound 133],0.05 to 1 µM,0.0665 µM
Cc1nc2cnc(C#N)cc2c(=O)n1CCOc1ccc(Cl)cc1-c1ccnc(C(=O)O)c1 [compound 134],0.05 to 1 µM,0.116 µM
O=C(O)c1cccc(-c2cc(Cl)ccc2OCCn2cnc3cnc(-n4cccn4)cc3c2=O)c1 [compound 136],0.05 to 1 µM,0.199 µM
CNC(=O)Cc1cc2c(=O)n(CCOc3ccc(Cl)cc3-c3cccc(C(=O)O)c3)cnc2cn1 [compound 137],0.05 to 1 µM,0.904 µM
Cc1cc2c(=O)n(CCOc3ccc(Cl)cc3-c3cccc(C(=O)O)c3)cnc2cn1 [compound 138],0.05 to 1 µM,0.279 µM
N#Cc1cc(C(F)F)cc2ncn(CCOc3ccc(Cl)cc3-c3cccc(C(=O)O)c3)c(=O)c12 [compound 139],< 0.05 µM,0.0346 µM
Cc1nc2cncc(C#N)c2c(=O)n1CCOc1ccc(Cl)cc1-c1ccnc2c(C(=O)O)csc12 [compound 140],0.05 to 1 µM,0.05 µM
Cc1nc2ccc(Cl)c(C#N)c2c(=O)n1CCOc1ccc(Cl)cc1-c1cccc(C(=O)O)c1 [compound 141],< 0.05 µM,0.0442 µM
Cc1nc2c(C(F)(F)F)ccc(C#N)c2c(=O)n1CCOc1ccc(Cl)cc1-c1cccc(C(=O)O)c1 [compound 142],0.05 to 1 µM,0.152 µM
N#Cc1cccc2nc(C(F)F)n(CCOc3ccc(Cl)cc3-c3ccnc4c(C(=O)O)csc34)c(=O)c12 [compound 143],< 0.05 µM,0.0167 µM
Cc1nc2cc(C(F)(F)F)cc(C#N)c2c(=O)n1C/C=C/c1ccc(Cl)cc1-c1cccc(C(=O)O)c1 [compound 145],0.05 to 1 µM,0.0959 µM
Cc1nc2cc(C(F)(F)F)cc(C#N)c2c(=O)n1CCCc1ccc(Cl)cc1-c1cccc(C(=O)O)c1 [compound 146],0.05 to 1 µM,0.259 µM
Cc1nc2cncc(C#N)c2c(=O)n1CCOc1ccc(Cl)cc1-c1ccc(C(=O)O)c(C(=O)O)c1 [compound 147],< 0.05 µM,0.0147 µM
N#Cc1cccc2nc(C(F)F)n(CCOc3ccc(Cl)cc3-c3ccc(C(=O)O)c(C(=O)O)c3)c(=O)c12 [compound 148],< 0.05 µM,0.0205 µM
Cc1nc2cncc(C#N)c2c(=O)n1CC#Cc1ccc(Cl)cc1-c1ccc(C(=O)O)c(C(=O)O)c1 [compound 149],0.05 to 1 µM,0.11 µM
Cc1nc2cc(C(F)F)cc(C#N)c2c(=O)n1CCOc1ccc(Cl)cc1-c1cccc(C(=O)O)c1 [compound 153],0.05 to 1 µM,0.054 µM
Cc1nc2cc(C(F)(F)F)nc(C#N)c2c(=O)n1CCOc1ccc(Cl)cc1-c1cccc(C(=O)O)c1 [compound 154],0.05 to 1 µM,
C#Cc1c(C(=O)O)cccc1-c1cc(Cl)ccc1OCCn1c(C)nc2cncc(C#N)c2c1=O [compound 155],< 0.05 µM,0.0455 µM
C#Cc1c(C(=O)O)cccc1-c1cc(Cl)ccc1OCCn1c(C)nc2cc(C(F)(F)F)cc(C#N)c2c1=O [compound 156],< 0.05 µM,0.0042 µM
Cc1nc2cc(C(F)(F)F)cc(C#N)c2c(=O)n1CCOc1ccc(Cl)cc1-c1ccc(C(=O)O)c(C(=O)O)c1 [compound 158],< 0.05 µM,0.0483 µM
C#Cc1c(C(=O)O)cccc1-c1cc(Cl)ccc1OCCn1cnc2cc(C(F)(F)F)cc(C#N)c2c1=O [compound 159],< 0.05 µM,0.0309 µM
